Paper PMC8269693 (ACS Chemical Neuroscience, 2021)

Assays:
[1] = target: GST-TrkB ECD (Homo sapiens, UniProt Q16620); assay: Biacore binding assay, GST-TrkB ECD
[2] = system: AD animal models; conditions: cited from earlier work
[3] = system: SH-SY5Y cells; assay: Protection from STS-induced cell death, MTT assay, TrkB-deficient SH-SY5Y cells; type: cell-based
[4] = system: BR6 cells; assay: Protection from STS-induced cell death, MTT assay, BR6 cells; type: cell-based, human
[5] = system: TrkB; assay: TrkB activation in BR6 cells; type: cell-based, human; conditions: data not shown
[6] = target: TrkB Ig1 (Homo sapiens, UniProt Q16620); assay: Biacore binding assay, TrkB Ig1
Chain of TrkB Ig1 (Q16620 182-250): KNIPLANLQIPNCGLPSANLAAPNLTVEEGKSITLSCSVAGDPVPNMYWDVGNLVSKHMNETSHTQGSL

[7] = target: TrkB Ig2 (Homo sapiens, UniProt Q16620); assay: Biacore binding assay, TrkB Ig2
Chain of TrkB Ig2 (Q16620 251-340): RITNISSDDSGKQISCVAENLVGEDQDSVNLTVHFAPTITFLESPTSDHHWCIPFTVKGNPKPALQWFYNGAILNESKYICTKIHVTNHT

[8] = system: TrkB; assay: TrkB activation in SH-SY5Y cells; type: cell-based; conditions: data not shown
[9] = system: 5xFAD mice; conditions: cited from earlier work

Chain of GST-TrkB ECD (Q16620 32-428): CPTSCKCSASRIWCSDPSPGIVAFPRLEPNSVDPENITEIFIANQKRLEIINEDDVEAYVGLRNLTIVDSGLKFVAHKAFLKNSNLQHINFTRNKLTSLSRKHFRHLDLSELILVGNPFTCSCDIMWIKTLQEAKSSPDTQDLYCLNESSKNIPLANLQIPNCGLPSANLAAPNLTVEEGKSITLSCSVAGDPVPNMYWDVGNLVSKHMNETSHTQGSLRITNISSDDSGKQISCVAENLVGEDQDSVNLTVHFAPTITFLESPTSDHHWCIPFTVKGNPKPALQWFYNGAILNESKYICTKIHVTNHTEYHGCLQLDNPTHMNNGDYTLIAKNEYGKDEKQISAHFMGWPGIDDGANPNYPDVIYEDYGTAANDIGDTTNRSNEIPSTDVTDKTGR

| Structure (SMILES) | Kd [1] [nM] | levels of Aβ40 and Aβ42 [2] | learning and memory deficits ([2]; different AD animal models) | protective effect via MTT assay [3] | protective profile via MTT assay [4] | TrkB activation [5] | association with Ig1 domain [6] | association with Ig2 domain [7] | TrkB activation [8] | Aβ deposition ([9]; chronic oral administration) | memory deficits ([9]; dose-dependent) |
| --- | --- | --- | --- | --- | --- | --- | --- | --- | --- | --- | --- |
| O=c1cc(-c2ccccc2)oc2c(O)c(O)ccc12 [7,8-DHF, 7,8-dihydroxyflavone] | 184 | reduces the levels of Aβ40 and Aβ42 | rescues learning and memory deficits | neither of them displayed a demonstrable effect | comparable protective profiles | robustly provoked TrkB activation | none of them associated with the Ig1 or Ig2 domains | none of them associated with the Ig1 or Ig2 domains | barely visible | – | – |
| CNC(=O)Oc1ccc2c(=O)cc(-c3ccccc3)oc2c1OC(=O)NC [R13] | – | – | – | – | – | – | – | – | – | inhibits Aβ deposition | improves memory deficits |
